Experimental data as given in patent US11613556B2, “Oxysterols and methods of use thereof” (Sage Therapeutics, Inc., priority 2016, dated 2023).
Like-named read-outs stand apart in the source and are kept apart here.

Legend:
[1] = target: GluN2B glutamate receptors expressed in mammalian cells (Homo sapiens (Human), UniProt Q05586+Q13224); assay: Whole-cell patch clamp of mammalian cells (Ionworks Barracuda), positive allosteric modulation, GluN2B; type: cell-based; settings: for Emax: read-out: GluN2B PCA EMax (%)
Method: (§1) NMDA potentiation in mammalian cells which expressed NMDA receptors was assessed using the automatic patch-clamp system can be used determine the NAM activity of compounds as described below. An whole cell patch-clamp system can be used determine the PAM activity of compounds as described below.
(§2) The measurements were performed using Ion Works Barracuda platform following this procedure:
(§3) Electrophysiological Procedures: • a) Intracellular solution (mM): 50 mM CsCl, 90 mM CsF, 2 mM MgCl2, 5 mM EGTA, 10 mM HEPES. Adjust to pH 7.2 with CsOH. • b) Extracellular solution, HB-PS (composition in mM): NaCl, 137; KCl, 1.0; CaCl2, 5; HEPES, 10; Glucose, 10; pH adjusted to 7.4 with NaOH (refrigerated until use). • c) Holding potential: −70 mV, potential during agonist/PAM application: −40 mV.
(§4) Recording Procedure: • a) Extracellular buffer will be loaded into the PPC plate wells (11 μL per well). Cell suspension will be pipetted into the wells (9 μL per well) of the PPC planar electrode. • b) Whole-cell recording configuration will be established via patch perforation with membrane currents recorded by on-board patch clamp amplifiers. • c) Two recordings (scans) will be performed. First, during pre-application of test article alone (duration of pre-application—5 min) and second, during test articles and agonist (EC20 L-glutamate and 30 μM glycine) co-application to detect positive modulatory effects of the test article.
(§5) Test Article Administration: The first pre-application will consist of the addition of 20 μL of 2× concentrated test article solution and, second, of 20 μL of 1× concentrated test article and agonist at 10 μL/s (2 second total application time).
(§6) Potentiating Effect of Positive Allosteric Modulators (PAM) on the Channel
(§7) The maximal amplitude of the evoked currents are measured and defined as Peak Current Amplitude (PCA).

[2] = target: GluN1/GluN2A glutamate receptors (human GRIN1/GRIN2A) expressed in HEK293 cells (Homo sapiens (Human), UniProt Q05586+Q12879); assay: Whole-cell patch clamp of mammalian cells (Ionworks Barracuda), positive allosteric modulation, GluN1/GluN2A; type: cell-based; settings: for Emax: read-out: GluN2A PCA EMax (%)
Method: as §1, §2, §3, §4, §5, §6, §7

[3] = peak current amplitude, co-application with EC20 L-glutamate and 30 μM glycine, read-out: GluN2B PCA EC50
[4] = peak current amplitude, co-application with EC20 L-glutamate and 30 μM glycine
[5] = peak current amplitude, co-application with EC20 L-glutamate and 30 μM glycine, HEK293
[6] = peak current amplitude, co-application with EC20 L-glutamate and 30 μM glycine, HEK293, read-out: GluN2A PCA EC50

GluN1/GluN2A glutamate receptors (human GRIN1/GRIN2A) expressed in HEK293 cells, sequence (Q12879 whole entry, looked up, other chains not shown): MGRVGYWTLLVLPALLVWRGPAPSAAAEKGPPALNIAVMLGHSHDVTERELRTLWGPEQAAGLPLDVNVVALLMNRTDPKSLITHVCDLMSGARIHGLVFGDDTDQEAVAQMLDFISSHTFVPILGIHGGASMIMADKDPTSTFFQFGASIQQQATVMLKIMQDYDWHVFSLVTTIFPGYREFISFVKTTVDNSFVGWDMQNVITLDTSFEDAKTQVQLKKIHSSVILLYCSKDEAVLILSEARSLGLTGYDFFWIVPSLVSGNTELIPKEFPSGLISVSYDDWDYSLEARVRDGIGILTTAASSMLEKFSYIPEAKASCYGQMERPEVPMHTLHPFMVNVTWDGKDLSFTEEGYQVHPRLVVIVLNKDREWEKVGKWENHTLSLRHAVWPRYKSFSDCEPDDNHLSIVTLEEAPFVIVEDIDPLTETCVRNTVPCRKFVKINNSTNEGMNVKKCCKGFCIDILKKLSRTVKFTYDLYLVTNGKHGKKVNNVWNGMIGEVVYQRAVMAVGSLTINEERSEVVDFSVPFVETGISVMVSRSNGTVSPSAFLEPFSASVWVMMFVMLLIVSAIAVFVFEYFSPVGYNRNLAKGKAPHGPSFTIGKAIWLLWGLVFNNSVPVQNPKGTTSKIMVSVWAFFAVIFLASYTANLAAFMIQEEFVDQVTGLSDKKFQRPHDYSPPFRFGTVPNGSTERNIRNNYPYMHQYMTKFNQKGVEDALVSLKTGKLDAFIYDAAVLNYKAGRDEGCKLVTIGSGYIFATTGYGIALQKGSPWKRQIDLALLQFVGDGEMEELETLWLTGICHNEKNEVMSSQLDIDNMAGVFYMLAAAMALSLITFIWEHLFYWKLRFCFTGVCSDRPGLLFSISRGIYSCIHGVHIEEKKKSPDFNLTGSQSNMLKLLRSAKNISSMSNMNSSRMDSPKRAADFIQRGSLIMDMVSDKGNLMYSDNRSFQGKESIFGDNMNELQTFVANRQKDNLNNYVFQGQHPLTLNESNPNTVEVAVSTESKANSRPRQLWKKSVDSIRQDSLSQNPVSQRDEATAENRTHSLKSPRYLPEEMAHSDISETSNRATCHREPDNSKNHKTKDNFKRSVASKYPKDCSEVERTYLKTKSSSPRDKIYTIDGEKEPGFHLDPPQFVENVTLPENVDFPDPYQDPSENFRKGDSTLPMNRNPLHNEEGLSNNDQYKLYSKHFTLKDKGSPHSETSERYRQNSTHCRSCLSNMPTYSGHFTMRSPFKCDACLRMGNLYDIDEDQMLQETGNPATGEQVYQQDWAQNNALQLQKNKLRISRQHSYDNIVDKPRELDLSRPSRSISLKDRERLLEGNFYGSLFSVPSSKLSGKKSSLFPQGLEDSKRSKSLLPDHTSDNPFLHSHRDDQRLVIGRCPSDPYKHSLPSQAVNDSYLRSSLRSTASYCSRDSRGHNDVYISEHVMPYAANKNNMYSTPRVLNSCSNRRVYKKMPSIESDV
GluN2B glutamate receptors expressed in mammalian cells, sequence (Q13224 27-1484, other chains not shown): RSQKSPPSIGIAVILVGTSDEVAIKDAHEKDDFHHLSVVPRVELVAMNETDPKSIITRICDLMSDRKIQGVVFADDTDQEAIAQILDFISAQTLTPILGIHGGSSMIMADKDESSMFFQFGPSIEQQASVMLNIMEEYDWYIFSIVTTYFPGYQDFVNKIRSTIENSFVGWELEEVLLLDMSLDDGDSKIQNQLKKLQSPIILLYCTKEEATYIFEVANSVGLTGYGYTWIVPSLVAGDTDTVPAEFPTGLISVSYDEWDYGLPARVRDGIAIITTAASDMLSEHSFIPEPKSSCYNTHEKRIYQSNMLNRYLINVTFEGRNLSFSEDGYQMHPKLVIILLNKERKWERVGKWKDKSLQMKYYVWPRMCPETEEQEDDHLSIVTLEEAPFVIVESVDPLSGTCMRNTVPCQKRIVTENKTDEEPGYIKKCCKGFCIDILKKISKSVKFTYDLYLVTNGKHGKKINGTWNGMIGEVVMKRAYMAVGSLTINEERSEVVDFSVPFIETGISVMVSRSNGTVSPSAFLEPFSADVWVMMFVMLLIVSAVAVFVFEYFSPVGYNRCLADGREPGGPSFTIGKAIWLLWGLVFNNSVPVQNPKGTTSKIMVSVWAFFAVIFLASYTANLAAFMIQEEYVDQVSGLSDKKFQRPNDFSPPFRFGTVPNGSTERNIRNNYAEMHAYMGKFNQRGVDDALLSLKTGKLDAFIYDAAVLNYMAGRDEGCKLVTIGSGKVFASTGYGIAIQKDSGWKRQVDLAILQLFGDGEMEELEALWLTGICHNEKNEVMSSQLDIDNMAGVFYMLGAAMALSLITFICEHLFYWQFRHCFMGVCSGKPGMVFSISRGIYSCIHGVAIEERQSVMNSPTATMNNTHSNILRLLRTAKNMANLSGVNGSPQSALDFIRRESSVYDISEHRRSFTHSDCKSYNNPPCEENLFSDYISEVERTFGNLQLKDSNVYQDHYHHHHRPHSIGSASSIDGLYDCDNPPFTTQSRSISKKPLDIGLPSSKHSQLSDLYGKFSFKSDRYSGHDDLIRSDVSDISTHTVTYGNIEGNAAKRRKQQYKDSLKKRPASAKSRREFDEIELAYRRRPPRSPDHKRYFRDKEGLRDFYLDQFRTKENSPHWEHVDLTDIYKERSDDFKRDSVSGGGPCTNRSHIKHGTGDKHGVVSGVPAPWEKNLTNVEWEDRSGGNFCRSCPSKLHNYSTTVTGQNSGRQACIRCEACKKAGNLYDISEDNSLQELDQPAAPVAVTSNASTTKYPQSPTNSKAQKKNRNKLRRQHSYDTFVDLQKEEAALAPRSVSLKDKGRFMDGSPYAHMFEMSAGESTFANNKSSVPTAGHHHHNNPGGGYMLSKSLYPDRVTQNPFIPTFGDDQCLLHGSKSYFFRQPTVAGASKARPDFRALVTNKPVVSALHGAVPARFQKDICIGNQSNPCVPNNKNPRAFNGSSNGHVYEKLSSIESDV

| Compound | EC50 [1, 3] | Emax [1, 4] | EC50 [2] | Emax [2, 5] | EC50 [1] | Emax [1] | EC50 [2, 6] |
| --- | --- | --- | --- | --- | --- | --- | --- |
| CC[C@]1(O)CC[C@H]2C(=CC[C@@H]3[C@@H]2CC[C@]2(C)[C@@H]([C@H](C)[C@H](O)CCC(C)C)CC[C@@H]32)C1 [Compound 3, (3S,8R,9S,10R,13S,14S,17R)-3-ethyl-17-((2S,3R)-3-hydroxy-6-methylheptan-2-yl)-13-methyl-2,3,4,7,8,9,10,11,12,13,14,15,16,17-tetradecahydro-1H-cyclopenta[a]phenanthren-3-ol] | > 1000 nM | < 100% | > 1000 nM | < 100% | – | – | – |
| C[C@H]([C@H](O)C[C@H](O)c1ccccc1)[C@H]1CC[C@H]2[C@@H]3CC[C@H]4C[C@](O)(C(F)(F)F)CC[C@]4(C)[C@H]3CC[C@]12C [Compound 13, (1S,3R,4S)-4-((3S,5S,8R,9S,10S,13S,14S,17R)-3-hydroxy-10,13-dimethyl-3-(trifluoromethyl)hexadecahydro-1H-cyclopenta[a]phenanthren-17-yl)-1-phenylpentane-1,3-diol] | – | – | – | < 100% | 1 to 100 nM | 100 to 500% | 1 to 100 nM |
| CC[C@]1(O)CC[C@@]2(C)[C@@H](CC[C@@H]3[C@@H]2CC[C@]2(C)[C@@H]([C@H](C)[C@H](O)CCC(C)C)CC[C@@H]32)C1 [Compound 24, (3S,5S,8R,9S,10S,13S,14S,17R)-3-ethyl-17-((2S,3R)-3-hydroxy-6-methylheptan-2-yl)-10,13-dimethylhexadecahydro-1H-cyclopenta[a]phenanthren-3-ol] | – | – | – | < 100% | > 1000 nM | < 100% | > 1000 nM |
| C[C@@H]([C@H]1CC[C@H]2[C@@H]3CC[C@H]4C[C@](O)(C(F)(F)F)CC[C@]4(C)[C@H]3CC[C@]12C)[C@@H](O)C[C@H](O)c1ccccc1 [Compound 25, (1S,3S,4S)-4-((3S,5S,8R,9S,10S,13S,14S,17R)-3-hydroxy-10,13-dimethyl-3-(trifluoromethyl)hexadecahydro-1H-cyclopenta[a]phenanthren-17-yl)-1-phenylpentane-1,3-diol] | – | – | – | < 100% | > 1000 nM | < 100% | > 1000 nM |
| CC[C@]1(O)CC[C@H]2[C@@H](CC[C@@H]3[C@@H]2CC[C@]2(C)[C@@H]([C@H](C)[C@@H](O)CCC(C)C)CC[C@@H]32)C1 [Compound 28, (3S,5S,8R,9R,10S,13S,14S,17R)-3-ethyl-17-((2S,3S)-3-hydroxy-6-methylheptan-2-yl)-13-methylhexadecahydro-1H-cyclopenta[a]phenanthren-3-ol] | > 1000 nM | 100 to 500% | > 1000 nM | < 100% | – | – | – |
| CC[C@]1(O)CC[C@@]2(C)[C@@H](CC[C@@H]3[C@@H]2CC[C@]2(C)[C@@H]([C@H](C)[C@@H](O)CCC(C)C)CC[C@@H]32)C1 [Compound 29, (3S,5S,8R,9S,10S,13S,14S,17R)-3-ethyl-17-((2S,3S)-3-hydroxy-6-methylheptan-2-yl)-10,13-dimethylhexadecahydro-1H-cyclopenta[a]phenanthren-3-ol] | – | – | – | < 100% | > 1000 nM | < 100% | > 1000 nM |
| CC(C)CC[C@@H](O)[C@@H](C)[C@H]1CC[C@H]2[C@@H]3CC=C4C[C@@](C)(O)CC[C@]4(C)[C@H]3CC[C@]12C [Compound 30, (3S,8S,9S,10R,13S,14S,17R)-17-((2S,3R)-3-hydroxy-6-methylheptan-2-yl)-3,10,13-trimethyl-2,3,4,7,8,9,10,11,12,13,14,15,16,17-tetradecahydro-1H-cyclopenta[a]phenanthren-3-ol] | > 1000 nM | 100 to 500% | > 1000 nM | 100 to 500% | – | – | – |
| C[C@H]([C@H](O)C[C@@H](O)c1ccccc1)[C@H]1CC[C@H]2[C@@H]3CC[C@H]4C[C@](O)(C(F)(F)F)CC[C@]4(C)[C@H]3CC[C@]12C [Compound 31, (1R,3R,4S)-4-((3S,5S,8R,9S,10S,13S,14S,17R)-3-hydroxy-10,13-dimethyl-3-(trifluoromethyl)hexadecahydro-1H-cyclopenta[a]phenanthren-17-yl)-1-phenylpentane-1,3-diol] | – | – | – | 100 to 500% | 100 to 1000 nM | 100 to 500% | 1 to 100 nM |
| CC(C)CC[C@@H](O)[C@@H](C)[C@H]1CC[C@H]2[C@@H]3CC[C@@H]4C[C@@](C)(O)CC[C@]4(C)[C@H]3CC[C@]12C [Compound 36, (3S,5R,8R,9S,10S,13S,14S,17R)-17-((2S,3R)-3-hydroxy-6-methylheptan-2-yl)-3,10,13-trimethylhexadecahydro-1H-cyclopenta[a]phenanthren-3-ol] | > 1000 nM | < 100% | > 1000 nM | < 100% | – | – | – |
| CC[C@]1(O)CC[C@H]2C(=CC[C@@H]3[C@@H]2CC[C@]2(C)[C@@H]([C@H](C)[C@@H](O)CCC(C)C)CC[C@@H]32)C1 [Compound 44, (3S,8R,9S,10R,13S,14S,17R)-3-ethyl-17-((2S,3S)-3-hydroxy-6-methylheptan-2-yl)-13-methyl-2,3,4,7,8,9,10,11,12,13,14,15,16,17-tetradecahydro-1H-cyclopenta[a]phenanthren-3-ol] | > 1000 nM | < 100% | > 1000 nM | < 100% | – | – | – |
| CC(C)CC[C@@H](O)[C@@H](C)[C@H]1CC[C@H]2[C@@H]3CC[C@H]4C[C@@](C)(O)CC[C@]4(C)[C@H]3CC[C@]12C [Compound 47, (3S,5S,8R,9S,10S,13S,14S,17R)-17-((2S,3R)-3-hydroxy-6-methylheptan-2-yl)-3,10,13-trimethylhexadecahydro-1H-cyclopenta[a]phenanthren-3-ol] | > 1000 nM | < 100% | > 1000 nM | < 100% | – | – | – |
| CC[C@]1(O)CC[C@@]2(C)C(=CC[C@H]3[C@@H]4CC[C@H]([C@H](C)[C@@H](O)CC5CCC(C)(C)CC5)[C@@]4(C)CC[C@@H]32)C1 [Compound 49, (3S,8S,9S,10R,13S,14S,17R)-17-((2S,3S)-4-(4,4-dimethylcyclohexyl)-3-hydroxybutan-2-yl)-3-ethyl-10,13-dimethyl-2,3,4,7,8,9,10,11,12,13,14,15,16,17-tetradecahydro-1H-cyclopenta[a]phenanthren-3-ol] | > 1000 nM | < 100% | > 1000 nM | < 100% | – | – | – |
| CC[C@]1(O)CC[C@@]2(C)C(=CC[C@H]3[C@@H]4CC[C@H]([C@H](C)[C@H](O)CCC(C)C)[C@@]4(C)CC[C@@H]32)C1 [Compound 52, (3S,8S,9S,10R,13S,14S,17R)-3-ethyl-17-((2S,3R)-3-hydroxy-6-methylheptan-2-yl)-10,13-dimethyl-2,3,4,7,8,9,10,11,12,13,14,15,16,17-tetradecahydro-1H-cyclopenta[a]phenanthren-3-ol] | > 1000 nM | < 100% | > 1000 nM | < 100% | – | – | – |
| CC(C)CC[C@H](O)[C@@H](C)[C@H]1CC[C@H]2[C@@H]3CC=C4C[C@@](C)(O)CC[C@]4(C)[C@H]3CC[C@]12C [Compound 75, (3S,8S,9S,10R,13S,14S,17R)-17-((2S,3S)-3-hydroxy-6-methylheptan-2-yl)-3,10,13-trimethyl-2,3,4,7,8,9,10,11,12,13,14,15,16,17-tetradecahydro-1H-cyclopenta[a]phenanthren-3-ol] | > 1000 nM | < 100% | > 1000 nM | < 100% | – | – | – |
| CC[C@]1(O)CC[C@@]2(C)C(=CC[C@H]3[C@@H]4CC[C@H]([C@H](C)[C@@H](O)CCC(C)C)[C@@]4(C)CC[C@@H]32)C1 [Compound 77, (3S,8S,9S,10R,13S,14S,17R)-3-ethyl-17-((2S,3S)-3-hydroxy-6-methylheptan-2-yl)-10,13-dimethyl-2,3,4,7,8,9,10,11,12,13,14,15,16,17-tetradecahydro-1H-cyclopenta[a]phenanthren-3-ol] | > 1000 nM | < 100% | > 1000 nM | < 100% | – | – | – |
